Data taken from publication PMC8512853, “Synthesis, Bioactivity, Pharmacokinetic and Biomimetic Properties of Multi-Substituted Coumarin Derivatives” (Molecules, 2021).

Legend:
soybean LOX = target: T1, soybean LOX (Glycine max, UniProt P08170); assay: Inhibition of soybean LOX; type: biochemical; settings: for inhibition at 100 µM: read-out: Soybean LOX % inhibition (100 μΜ)
T1 construct: purchased Sigma-Aldrich and Fluka
T1 sequence (P08170 1-839): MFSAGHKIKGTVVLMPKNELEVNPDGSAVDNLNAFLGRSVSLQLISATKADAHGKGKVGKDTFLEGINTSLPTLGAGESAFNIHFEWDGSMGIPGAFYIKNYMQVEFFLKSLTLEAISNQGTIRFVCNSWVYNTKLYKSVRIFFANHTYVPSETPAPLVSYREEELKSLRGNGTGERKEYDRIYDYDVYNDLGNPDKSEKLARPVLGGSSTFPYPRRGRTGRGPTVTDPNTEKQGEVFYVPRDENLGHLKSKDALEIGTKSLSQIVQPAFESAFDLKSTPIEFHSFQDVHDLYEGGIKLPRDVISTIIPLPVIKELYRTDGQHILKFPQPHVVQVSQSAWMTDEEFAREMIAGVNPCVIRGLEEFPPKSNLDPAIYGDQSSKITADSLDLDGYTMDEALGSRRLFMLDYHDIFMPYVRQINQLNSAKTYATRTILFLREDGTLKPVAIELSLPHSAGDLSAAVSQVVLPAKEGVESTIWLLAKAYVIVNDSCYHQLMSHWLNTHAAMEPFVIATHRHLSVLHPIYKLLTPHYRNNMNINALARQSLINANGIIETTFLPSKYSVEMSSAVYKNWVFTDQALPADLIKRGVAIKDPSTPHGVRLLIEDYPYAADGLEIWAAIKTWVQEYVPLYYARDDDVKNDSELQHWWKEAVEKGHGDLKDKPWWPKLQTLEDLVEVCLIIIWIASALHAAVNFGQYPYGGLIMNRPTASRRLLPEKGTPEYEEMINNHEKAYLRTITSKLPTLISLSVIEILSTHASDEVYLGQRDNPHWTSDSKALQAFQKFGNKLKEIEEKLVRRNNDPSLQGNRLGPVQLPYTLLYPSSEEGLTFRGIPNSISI
Protocol: Soybean LOX is a plant enzyme which has been used widely as a prototype for studying the functional and structural properties of the homologous family of lipoxygenases, presenting satisfactory homology with the human 5-LOX [14]. Linoleic acid (LA) is a standard substrate for plant LOXs. In this protocol, all new molecules were tested as inhibitors of soybean LOX as an indication of their anti-inflammatory activity (Table 3).
For the reference sample in a UV cuvette 10 μL of the test sample (100 μM diluted in DMSO), 200 μL LOX solution (diluted in NaCl 0.9%), 100 μL LA (diluted in Tris buffer) and Tris buffer solution (pH 9) were added to a final volume of 1 mL. Respectively for the measurement sample, also in a UV cuvette 10 μL of test sample, 200 μL LOX solution, and Tris buffer solution (pH 9) were added to a final volume of 1mL. Standard and blank samples were prepared in the same way using DMSO (solvent) instead of the tested coumarin analogues.

A549 cells = assay: MTT cytotoxicity assay, A549; type: cell-based, human; settings: 24 h; for cytotoxicity at 100 µM: Homo sapiens, A549, 100 μΜ, read-out: Cell Toxicity A549 % (100 μΜ)
Protocol: Furthermore, the coumarin compounds synthesized in this study were also evaluated for their cytotoxicity against A549 (adenocarcinomic human alveolar basal epithelial cells) and A375 (human melanoma) cell lines.
This protocol was used for the evaluation of cell viability and all the cell lines. It must be noted that this assay describes the count of cells that remain alive after the treatment. For the experimental procedure a standard solution of MTT 1mg/mL in PBS was prepared which after filtration ([…] filter (Millipore, Carrigtwohill, Ireland)) was stored in the dark (4–8 °C) until use. In a 96-well plate, HaCaT, A549 and A375 cells were seeded in a number of 30 × 10^4 cells/well for each evaluation series respectively. The cells were incubated (37 °C, 5% CO2) for 24 h, followed by the addition of the tested analogues (100 μM, diluted in DMEM) and another 24-h incubation. Next, appropriate amount of MTT was added in the tested wells and the plate returned to the incubator for the next 4 h for the formation of the formazan crystals. The formazan crystals were then redissolved by adding DMSO (100 μL) and stirring lightly for 40 min, after which the absorbance was measured in a plate reader at 540 nm with a reference absorbance of 720 nm.
All samples were tested in triplicate, against a control (only cells), blank (no cells), and positive control (100 μM standard silibinin solution was used as a “cell-killing” standard).

[1] = target: T2, human serum albumin (HSA) (Homo sapiens, UniProt P02768); assay: HSA chromatography and estimated plasma protein binding; type: in vitro ADME; settings: for fraction unbound: human, immobilized human serum albumin (HSA) column, Equation (2) from logk10, pH 7.00, read-out: %PPB estimated plasma protein binding (converted); for logk10 (HSA retention factor): pH 7.00, 10% acetonitrile
T2 construct: purchased CHIRAL PAK
Protocol: The novel coumarin derivatives were also studied using the immobilized protein column HSA. An HSA chromatographic column provides estimates on the binding affinities of chemicals to human serum albumin, which is the most abundant plasma protein and is related to drug efficacy, drug—drug pharmacokinetic interactions, and drug safety. HSA binding can be considered to represent almost the total plasma protein binding of a drug.
Retention factors on the HSA stationary phase were measured using as eluent PBS at pH = 7.00 and a flow rate of 1 mL/min in the presence of 10% acetonitrile.
(2) % PPB=101∗10^logk10/1+10^logk10
The physicochemical and biomimetic properties of the new coumarin analogues were studied using liquid chromatography (HPLC) in 220–230 nm Two types of chromatographic columns were used: (i) immobilized artificial membrane (IAM) ([…].PC.DD.2, Regis Technologies) column and (ii) human serum albumin (HSA) (CHIRAL PAK) column.
The training set consisted of 25 neutral and slightly acidic compounds. Their IAM retention factors were measured at pH 7.40 on a IAM.PC.DD.2 column. The mobile phase consisted of acetonitrile solvent (CH3CN) in various concentrations (10%, 15%, 20%, 25%, 30%) and a flow rate of 3 mL/min was selected. Their HSA retention factors were measured at pH 7.00 on HSA column. The mobile phase consisted of acetonitrile solvent (CH3CN) in 10% concentration and a flow rate of 1 mL/min was selected.
The different pH values (7.00 for HSA and 7.40 for IAM) were measured with an electronic pH meter MP125 and were achieved by preparing suitable buffers of phosphates and chlorides (0.12 g KH2PO4, 0.72 g Na2HPO4·2H2O, 4.00 g NaCl and 0.10 g KCl). Sodium citrate solution was used to determine the dead time, which was deducted from the results at the end of measurements. The elution time of each coumarin analogue was measured at least three times. Retention times were converted into logk values, which represent the logarithm of the retention indexes, using Equation (8). (8) logk=log(tr−t0/t0) where tr is the retention time of the coumarin derivative and t0 is the dead time.

T2 sequence (P02768 25-609): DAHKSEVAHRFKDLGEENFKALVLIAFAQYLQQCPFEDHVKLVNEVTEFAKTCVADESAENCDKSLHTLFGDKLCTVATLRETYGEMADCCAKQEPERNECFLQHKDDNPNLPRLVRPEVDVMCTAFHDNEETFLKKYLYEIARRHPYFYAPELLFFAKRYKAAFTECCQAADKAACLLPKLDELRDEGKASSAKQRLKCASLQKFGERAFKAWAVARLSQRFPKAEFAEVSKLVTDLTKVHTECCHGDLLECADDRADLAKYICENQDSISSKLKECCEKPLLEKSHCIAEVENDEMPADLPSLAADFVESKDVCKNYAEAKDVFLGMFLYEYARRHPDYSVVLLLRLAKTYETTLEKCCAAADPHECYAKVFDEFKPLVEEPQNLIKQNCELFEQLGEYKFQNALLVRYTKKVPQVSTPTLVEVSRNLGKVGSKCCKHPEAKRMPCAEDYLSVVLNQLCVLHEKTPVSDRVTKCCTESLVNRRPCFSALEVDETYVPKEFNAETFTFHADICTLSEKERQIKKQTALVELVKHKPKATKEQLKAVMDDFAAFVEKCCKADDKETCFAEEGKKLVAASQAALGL

Compound	Soybean LOX % inhibition (100 μΜ) (soybean LOX)	inhibition at 100 µM (soybean LOX)	Cell Toxicity A549 % (100 μΜ) (A549 cells)	fraction unbound [1]	logk10 (HSA retention factor) [1]	IC50 (soybean LOX)	cytotoxicity at 100 µM (A549 cells)
CC(=O)Oc1cccc2oc(=O)c(-c3ccccc3Cl)c(C)c12 [Compound 3a, 5-acetyloxy-3-(2-chlorophenyl)-4-methyl-chromen-2-one]	inactive	17%	no	0.202	0.57	–	–
CC(=O)Oc1cccc2oc(=O)c(-c3cccc(Cl)c3)c(C)c12 [Compound 3b, 5-acetyloxy-3-(3-chlorophenyl)-4-methyl-chromen-2-one]	–	–	–	0.128	0.80	31.6 µM	24.6%
CC(=O)Oc1cccc2oc(=O)c(-c3ccc(Cl)cc3)c(C)c12 [Compound 3c, 5-acetyloxy-3-(4-chlorophenyl)-4-methyl-chromen-2-one]	no	–	no	0.091	0.96	–	–
CC(=O)Oc1cccc2oc(=O)c(-c3ccccc3F)c(C)c12 [Compound 3d, 5-acetyloxy-3-(2-fluorophenyl)-4-methyl-chromen-2-one]	inactive	11.6%	–	0.149	0.73	–	7.5%
CC(=O)Oc1cccc2oc(=O)c(-c3cccc(F)c3)c(C)c12 [Compound 3e, 5-acetyloxy-3-(3-fluorophenyl)-4-methyl-chromen-2-one]	–	–	–	0.149	0.73	11.4 µM	8.9%
CC(=O)Oc1cccc2oc(=O)c(-c3ccc(F)cc3)c(C)c12 [Compound 3f, 5-acetyloxy-3-(4-fluorophenyl)-4-methyl-chromen-2-one]	inactive	20.1%	no	0.206	0.57	–	–
CC(=O)Oc1cccc2oc(=O)c(-c3cccc(Br)c3)c(C)c12 [Compound 3g, 5-acetyloxy-3-(3-bromophenyl)-4-methyl-chromen-2-one]	–	–	no	0.12	0.83	40.5 µM	–
CC(=O)Oc1ccc(-c2c(C)c3ccccc3oc2=O)cc1 [Compound 3h, 3-(4-acetyloxyphenyl)-4-methyl-chromen-2-one]	–	33.8%	no	0.145	0.74	–	–
CC(=O)Oc1ccc(-c2c(C)c3cc(Br)ccc3oc2=O)cc1 [Compound 3i, 3-(4-acetyloxyphenyl)-6-bromo-4-methyl-chromen-2-one]	–	46.5%	no	0.059	1.14	–	–
CC(=O)Oc1ccc(-c2c(C)c3cc(Cl)ccc3oc2=O)cc1 [Compound 3j, 3-(4-acetyloxyphenyl)-6-chloro-4-methyl-chromen-2-one]	–	–	no	0.088	0.97	49.5 µM	–
CC(=O)Oc1ccc(-c2c(C)c3cc(Br)cc(Br)c3oc2=O)cc1 [Compound 3k, 3-(4-acetyloxyphenyl)-6,8-dibromo-4-methyl-chromen-2-one]	–	–	no	0.013	1.63	8.7 µM	–
CC(=O)Oc1ccc(-c2c(C)c3ccccc3oc2=O)cc1OC(C)=O [Compound 3l, 3-(4,5-diacetyloxyphenyl)-4-methyl-chromen-2-one]	–	31.4%	no	0.401	0.16	–	–
CC(=O)Oc1ccc(-c2c(C)c3cc(Br)ccc3oc2=O)cc1OC(C)=O [Compound 3m, 3-(4,5-diacetyloxyphenyl)-6-bromo-4-methyl-chromen-2-one]	–	48%	no	0.105	0.89	–	–
CC(=O)Oc1ccc(-c2c(C)c3cc(Cl)ccc3oc2=O)cc1OC(C)=O [Compound 3n, 3-(4,5-diacetyloxyphenyl)-6-chloro-4-methyl-chromen-2-one]	–	–	no	0.145	0.74	56.5 µM	–
CC(=O)Oc1ccc(-c2c(C)c3cc(Br)cc(Br)c3oc2=O)cc1OC(C)=O [Compound 3o, 3-(4,5-diacetyloxyphenyl)-6,8-dibromo-4-methyl-chromen-2-one]	no	–	no	0.201	0.58	–	–
Cc1c(-c2ccccc2Cl)c(=O)oc2cccc(O)c12 [Compound 4a, 3-(2-chlorophenyl)-5-hydroxy-4-methyl-chromen-2-one]	–	–	–	0.13	0.79	10 µM	64.7%
Cc1c(-c2cccc(Cl)c2)c(=O)oc2cccc(O)c12 [Compound 4b, 3-(3-chlorophenyl)-5-hydroxy-4-methyl-chromen-2-one]	–	47.3%	no	0.201	0.58	–	–
Cc1c(-c2ccc(O)cc2)c(=O)oc2c(Br)cc(Br)cc12 [Compound 4k, 6,8-dibromo-3-(4-hydroxyphenyl)-4-methyl-chromen-2-one]	inactive	33.4%	–	–	–	–	66.5%
